Measured values as given in patent US20080227774A1, “5,5-DISUBSTITUTED-INDOLIZINONE COMPOUNDS” (priority 2007, published 2008).
pIC50: −log10 of the molar value.

Molecular target: NS5B polymerase (Hepatitis C virus genotype 1b, UniProt P26663)
Experiment: HCV polymerase inhibition assay (FlashPlate)
Format: biochemical
Conditions: 20 nM enzyme, 75 min at 28° C.
Protocol: Compounds were tested for HCV polymerase inhibition. Assays were performed in a 96-well streptavidin-coated FlashPlate using 20 nM enzyme, 0.5 μCi of [α-^33P]GTP, 0.6 μM GTP, and 250 nM 5′biotinylated oligo (rG13)/poly rC in 20 mM Tris-HCl, pH 7.5, 5 mM MgCl2, 5 mM dithiothreitol, 0.1 g/L bovine serum albumin, and 100 U/ml RNAse inhibitor. The reaction was stopped by aspiration after 75 min at 28° C. and the plate was washed several times. After washing and drying the plate, incorporated radioactivity was counted using a Microbeta scintillation counter. IC50 values were calculated relative to the uninhibited control and inhibition data were fitted to a 4-parameter IC50 equation. For very potent inhibitors, the data were fitted to a tight binding quadratic equation to obtain IC50 values.

NS5B polymerase, sequence (P26663 2420-3010): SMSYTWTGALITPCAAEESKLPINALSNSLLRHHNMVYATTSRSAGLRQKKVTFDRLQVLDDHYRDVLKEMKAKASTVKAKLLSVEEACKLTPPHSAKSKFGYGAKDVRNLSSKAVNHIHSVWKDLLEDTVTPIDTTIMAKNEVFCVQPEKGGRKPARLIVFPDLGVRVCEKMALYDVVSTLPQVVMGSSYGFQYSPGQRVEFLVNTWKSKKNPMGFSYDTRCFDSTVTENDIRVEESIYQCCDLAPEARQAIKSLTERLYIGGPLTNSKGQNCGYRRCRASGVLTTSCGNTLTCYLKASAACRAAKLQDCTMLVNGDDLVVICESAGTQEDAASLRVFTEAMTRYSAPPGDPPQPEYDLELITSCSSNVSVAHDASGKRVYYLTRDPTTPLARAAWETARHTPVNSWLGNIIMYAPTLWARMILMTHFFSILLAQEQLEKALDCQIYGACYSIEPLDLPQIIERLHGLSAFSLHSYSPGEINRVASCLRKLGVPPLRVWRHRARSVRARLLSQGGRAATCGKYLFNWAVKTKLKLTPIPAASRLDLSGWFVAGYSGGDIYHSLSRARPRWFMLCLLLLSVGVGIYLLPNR

pIC50, > 4.30:
CC(C)CCC1(C)C(=O)C(C2=NS(=O)(=O)c3cc(NS(C)(=O)=O)ccc3N2)=C(O)c2cccn21 (stereo not shown) [Example 2, N-{3-[8-Hydroxy-5-methyl-5-(3-methylbutyl)-6-oxo-5,6-dihydroindolizin-7-yl]-1,1-dioxo-1,2-dihydro-1λ^6-benzo[1,2,4]thiadiazin-7-yl}methanesulfonamide]
CC(C)CCC1(C)C(=O)C(C2=Nc3ccccc3S(=O)(=O)N2)=C(O)c2cccn21 (stereo not shown) [Example 1, 7-(1,1-Dioxo-1,2-dihydro-1λ^6-benzo[1,2,4]thiadiazin-3-yl)-8-hydroxy-5-methyl-5-(3-methylbutyl)indolizin-6-one]
CC1(Cc2ccc(F)c(Cl)c2)C(=O)C(C2=NS(=O)(=O)c3cc(NS(C)(=O)=O)ccc3N2)=C(O)c2cccn21 (stereo not shown) [Example 4, N-{3-[5-(3-Chloro-4-fluoro-benzyl)-8-hydroxy-5-methyl-6-oxo-5,6-dihydro-indolizin-7-yl]-1,1-dioxo-1,4-dihydro-1λ^6-benzo[1,2,4]thiadiazin-7-yl}-methanesulfonamide]
C[C@]1(Cc2ccc(F)cc2)C(=O)C(C2=NS(=O)(=O)c3cc(NS(C)(=O)=O)ccc3N2)=C(O)c2cccn21 [Example 3, N-{3-[5-(S)-(4-Fluoro-benzyl)-8-hydroxy-5-methyl-6-oxo-5,6-dihydro-indolizin-7-yl]-1,1-dioxo-1,4-dihydro-1λ^6-benzo[1,2,4]thiadiazin-7-yl}-methanesulfonamide]
